Each structure is given as a SMILES string. Where a name gives a salt, the structure may show the parent alone.

In the first experiment the target is T1, isolated guinea pig ileum (bethanechol induced contractions) (Cavia porcellus, UniProt H0W1Z3).
T1 construct: a 2 cm piece of terminal ileum was rapidly excised; from tissue; host or cells: guinea pig terminal ileum (Dunkin Hartley)
T1 sequence (H0W1Z3 1-590): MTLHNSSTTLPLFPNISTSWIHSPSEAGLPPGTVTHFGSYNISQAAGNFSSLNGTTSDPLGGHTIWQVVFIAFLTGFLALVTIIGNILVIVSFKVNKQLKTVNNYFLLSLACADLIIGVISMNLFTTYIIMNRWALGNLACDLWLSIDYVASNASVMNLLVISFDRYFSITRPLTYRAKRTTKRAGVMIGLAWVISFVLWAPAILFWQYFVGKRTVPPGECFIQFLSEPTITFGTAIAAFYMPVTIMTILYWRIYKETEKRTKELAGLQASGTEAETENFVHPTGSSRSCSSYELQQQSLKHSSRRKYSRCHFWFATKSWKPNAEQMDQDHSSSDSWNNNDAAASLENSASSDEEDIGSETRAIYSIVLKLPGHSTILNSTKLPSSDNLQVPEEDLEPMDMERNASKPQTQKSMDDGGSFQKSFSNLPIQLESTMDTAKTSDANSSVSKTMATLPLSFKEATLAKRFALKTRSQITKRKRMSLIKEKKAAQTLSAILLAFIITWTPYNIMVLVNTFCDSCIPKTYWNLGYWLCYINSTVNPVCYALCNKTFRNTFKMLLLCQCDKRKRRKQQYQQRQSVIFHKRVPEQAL
Nature of the experiment: antispasmodic activity on isolated guinea pig ileum with bethanechol as spasmogen. On the set-up: species or system guinea pig (Dunkin Hartley). Particulars: cumulative bethanechol 0.3-30 μM, antagonist 60 min before, Tyrode solution, 37° C.; KB from dose-ratio; read-out: Antispasmodic activity. Dissociation constants (KB) for bethanechol induced contractions in the guinea pig ileum.
For orientation: Kb means the affinity of an antagonist, worked out from how it opposes an agonist. Take `OC(CCN1C=NCCC1)(c1ccccc1)C1CCCCC1` (stereo not drawn) [Compound 1, 1-(3-Phenyl-3-cyclohexyl-3-hydroxy)propyl-1,4,5,6-tetrahydropyrimidine hydrochloride]: the antagonist dissociation constant (Kb) was determined as 1 nM.

`CC1=NCCN1CCC(O)(c1ccccc1)C1CCCCC1` (stereo not drawn) [Compound 2, 1-(3-Phenyl-3-cyclohexyl-3-hydroxy)propyl-2-methyl-2-imidazoline hydrochloride]: the Kb was 1.7 nM.

For `NC1=NCC(OC(=O)C2(C3CCCCC3)CCCCC2)CN1` (stereo not drawn) [Compound 15, 2-Amino-1,4,5,6-tetrahydropyrimidin-5-yl 1-cyclohexylcyclohexane-1-carboxylate formate], the Kb turned out to be 0.46 nM.

As for `CC1=NCCN1CCCC(O)(c1ccccc1)C1CCCCC1` (stereo not drawn) [Compound 21, 1-(4-Phenyl-4-cyclohexyl-4-hydroxy)butyl-2-methyl-2-imidazoline hydrochloride], the Kb amounted to 3.4 nM.

`OC(CCCN1C=NCCC1)(c1ccccc1)C1CCCCC1` (stereo not drawn) [Compound 22, 1-(4-Phenyl-4-cyclohexyl-4-hydroxy)butyl-1,4,5,6-tetrahydropyrimidine hydrochloride]: the antagonist dissociation constant (Kb) came out at 1.5 nM.

Consider `OC(CCN1C=NCC1)(c1ccccc1)C1CCCCC1` (stereo not drawn) [Compound 23, 1-(3-phenyl-3-cyclohexyl-3-hydroxy)propyl-2-imidazoline hydrochloride], for which the Kb was 6.2 nM.

The target in a further experiment is T2, muscarinic receptors of the cerebral cortex (Rattus norvegicus, UniProt P08482).
T2 sequence (P08482 1-460): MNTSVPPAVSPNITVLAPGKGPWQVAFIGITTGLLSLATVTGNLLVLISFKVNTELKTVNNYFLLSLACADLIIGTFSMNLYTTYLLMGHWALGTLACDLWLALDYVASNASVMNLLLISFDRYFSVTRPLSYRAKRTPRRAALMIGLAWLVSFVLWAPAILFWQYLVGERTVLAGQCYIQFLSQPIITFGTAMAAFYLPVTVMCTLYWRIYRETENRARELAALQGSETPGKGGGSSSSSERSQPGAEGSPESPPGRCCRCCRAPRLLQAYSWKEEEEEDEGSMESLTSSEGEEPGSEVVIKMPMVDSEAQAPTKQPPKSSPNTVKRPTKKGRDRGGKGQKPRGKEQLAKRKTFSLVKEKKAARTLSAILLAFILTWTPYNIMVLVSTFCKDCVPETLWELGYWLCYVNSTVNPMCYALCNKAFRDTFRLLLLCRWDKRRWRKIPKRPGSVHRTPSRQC
Nature of the experiment: biochemical. Also on record: species or system male CD-COOBBS rats. The note with it: competition against 0.5 nM ^3 H-pirenzepine, rat cerebral cortex homogenate, 45 min at 30° C., pH 7.4; corrected for radioligand occupancy shift; read-out: Antimuscarinic effect. Dissociation constants (KD) for ^3 H-pirenzepine binding.
A word on the Kd: it is a measure of binding affinity in units of concentration. For the molecule `OC(CCN1C=NCCC1)(c1ccccc1)C1CCCCC1` (stereo not drawn) [Compound 1, 1-(3-Phenyl-3-cyclohexyl-3-hydroxy)propyl-1,4,5,6-tetrahydropyrimidine hydrochloride], the dissociation constant (Kd) is 4.2 nM.

`CC1=NCCN1CCC(O)(c1ccccc1)C1CCCCC1` (stereo not drawn) [Compound 2, 1-(3-Phenyl-3-cyclohexyl-3-hydroxy)propyl-2-methyl-2-imidazoline hydrochloride]: the Kd was 3 nM.

Turning to `CC1=NCCN1CCCC(O)(c1ccccc1)C1CCCCC1` (stereo not drawn) [Compound 21, 1-(4-Phenyl-4-cyclohexyl-4-hydroxy)butyl-2-methyl-2-imidazoline hydrochloride], the Kd is 7.4 nM.

For the molecule `OC(CCCN1C=NCCC1)(c1ccccc1)C1CCCCC1` (stereo not drawn) [Compound 22, 1-(4-Phenyl-4-cyclohexyl-4-hydroxy)butyl-1,4,5,6-tetrahydropyrimidine hydrochloride], the dissociation constant (Kd) is 5 nM.

For the molecule `OC(CCN1C=NCC1)(c1ccccc1)C1CCCCC1` (stereo not drawn) [Compound 23, 1-(3-phenyl-3-cyclohexyl-3-hydroxy)propyl-2-imidazoline hydrochloride], the Kd is 14 nM.

The experiment is the same for the next values; noted with them: read-out: Antimuscarinic effect. Dissociation constants (KD) for ^3 H-pirenzepine binding.
Turning to `NC1=NCC(OC(=O)C2(C3CCCCC3)CCCCC2)CN1` (stereo not drawn) [Compound 15, 2-Amino-1,4,5,6-tetrahydropyrimidin-5-yl 1-cyclohexylcyclohexane-1-carboxylate formate], the dissociation constant Kd amounted to 2.7 nM.

Source of the values: patent publication US4973592A, “1,3-diazocycloalkenes as muscarinic receptor blocking agents” (Istituto de Angeli, priority 1987, dated 1990).
